Source: patent US12582809B2, “Treatment of a disease of the gastrointestinal tract with a PDE4 inhibitor” (BT Bidco, Inc., priority 2018, dated 2026)

Tests used:
[1] = parameters: species or system Yorkshire-Cross farm swine; conditions: in vivo
Experimental: The primary objective of this study was to compare the tissue, plasma, rectal sample, and GI content pharmacokinetics of tacrolimus through oral versus intra-cecal ingestible device delivery in normal Yorkshire-Cross farm swine.
(§1) No further randomization procedure was employed.
Animals in Group 1 received an ingestible device containing 0.8 mL of vehicle solution (80% alcohol, 20% HCO-60). Animals in Group 2 received orally […] liquid formulation of tacrolimus at 4 mg/0.8 mL per animal (Prograf: 5 mg/mL). Animals in Group 3 received intra-cecally an ingestible device containing tacrolimus at 1 mg in 0.8 mL per ingestible device. Animals in Group 4 received intra-cecally an ingestible device containing tacrolimus at 2 mg in 0.8 mL per ingestible device. Animals in Group 5 received intra-cecally an ingestible device containing tacrolimus at 4 mg in 0.8 mL per ingestible device. To control for potential confounding effects of the surgery, all groups fast on Day −11 at least 24 hr before being subjected to anesthesia followed by surgical placements of a cecal port by a veterinary surgeon at Day −10. All animals were fasted for at least 12 hr prior to dosing on Day 1. Animals were dosed via either intra-cecal dosing (IC) or oral dosing (PO) at Day 1 (between 6-8 p.m.). All animals resumed feeding at approximately 4 hours after dose (11-12 p.m. after dosing).
Animals in Group 1 (Vehicle Control) were administered a single intra-cecal ingestible device containing 0.8 mL Vehicle solution (80% alcohol, 20% castor oil (HCO-60) on Day 1. On Day −10 the animals were anesthetized, and a veterinary surgeon surgically placed an intra-cecal port in each animal. On Day 1, each animal was placed into a sling then a single intra-cecal ingestible device containing 0.8 mL vehicle solution (80% alcohol, 20% castor oil (HCO-60)) is introduced by the veterinary surgeon into the cecum via the cecal port in each animal. Following ingestible device placement, the animals were removed from the slings and placed back into their pens with water. All animals resumed feeding at approximately 4 hours after dose. […] A total of 60 samples were collected.
Approximately 200˜400 mg of rectal content were collected, if available, with a fecal swab (Copan Diagnostics Nylon Flocked Dry Swabs, 502CS01). The fecal swab was pre-weighed and weighed after collection in the collection tube (Sterile Tube and Cap No Media, PFPM913S), and the sample weight was recorded. The fecal swab was broken via the breakpoint, and was stored in the collection tube, and immediately frozen at −70° C. […] Immediately following euthanasia, tissue was collected.
For tissue necropsy, small intestine fluid and cecal fluid were collected separately from all the animals into two separate square plastic bottles, and stored at −20° C. The length and diameter of the cecum and the colon was measured from one animal in each group and recorded for reference. Tissues were collected for pharmacokinetic analyses and include mesenteric lymph nodes, a Peyer's Patch, and five gastrointestinal sections, including cecum, proximal colon, transverse colon, distal colon, and rectum. All samples were weighed, and the tissue sample weights were recorded. In each of the five gastrointestinal sections, tissue samples were collected in three different areas where the mucosal surface was visible and not covered by luminal content by using an 8.0-mm punch biopsy tool. Around 3 grams of the total punched sample were collected into a pre-weighed 15-mL conical tube, and the tissue weight was recorded. Three mesenteric lymph nodes were collected from different areas and weighed. At least one Peyer's Patch was collected and weighed.
Luminal contents were collected for pharmacokinetic analyses from the surface of the tissue from each of five gastrointestinal sections: cecum, proximal colon, transverse colon, distal colon, and rectum (total of 75). […]

[2] = Pharmacokinetic study of oral vs intra-cecal administration of tacrolimus (Example 13); parameters: species or system Yorkshire-Cross farm swine; conditions: in vivo, 0.09 mg/kg
Text: as §1

[3] = female, Yorkshire-Cross, pig, po, 12 h

## C=CC[C@@H]1/C=C(\C)C[C@H](C)C[C@H](OC)[C@H]2O[C@@](O)(C(=O)C(=O)N3CCCC[C@H]3C(=O)O[C@H](/C(C)=C/[C@@H]3CC[C@@H](O)[C@H](OC)C3)[C@H](C)[C@@H](O)CC1=O)[C@H](C)C[C@@H]2OC [tacrolimus]
[1]
  exposure AUC: < 2000-12 ng·h/mL
  luminal content concentration, distal colon, IC capsule vs PO: Significantly higher
  luminal content concentration, spiral colon, IC capsule vs PO: Significantly higher
  luminal content concentration, transverse colon, IC capsule vs PO: Significantly higher
  tissue concentration, spiral colon, IC capsule vs PO: Significantly higher
  tissue concentration, transverse colon, IC capsule vs PO: Significantly higher
[1]; po
  level of tacrolimus detected in tissue: No measurable level
[2]; female, Yorkshire-Cross, pig, po
  Kp at 12 h: 0
[2]; [3]
  Ratio Tissue(mean) (ng/g)/Trough(12 hr) (ng/mL), Cecum: 0
  Ratio Tissue(mean) (ng/g)/Trough(12 hr) (ng/mL), Distal Colon: 0
  Ratio Tissue(mean) (ng/g)/Trough(12 hr) (ng/mL), Proximal Colon: 0
  Ratio Tissue(mean) (ng/g)/Trough(12 hr) (ng/mL), Transverse colon: 0
[2]; female, Yorkshire-Cross, swine, po, 12 h
  Trough (12 hr): 0.568 ng/mL
[2]; female, Yorkshire-Cross, swine, po, Trough (12 hr)
  concentration at 12 h: 0.568 ± 0.291 ng/mL
[2]
  AUC0-12 hours in the blood, intra-cecal vs oral: higher
  mean concentration in the blood, intra-cecal vs oral: higher
